The text below walks through data of publication PMC10053440, “Semi-Synthesis and Biological Evaluation of 25(R)-26-Acetoxy-3β,5α-Dihydroxycholest-6-One” (Marine Drugs, 2023).

In brackets after ≈: the same amount, converted by molar mass.

Data set [1] relates to L-02 (human hepatocyte cell). The experiment in a line: CCK-8 anti-proliferation assay, L-02. It counts as cell-based. As to conditions: L-02 normal liver cells, at 20 µM, 48 h, mean ± SEM, read-out: Inhibition Rate (%). The protocol:
(§1) One concentration was set for each sample during preliminary screening and three multiple holes were set for each concentration. Eight concentration gradients were set for each sample for IC50 determination and three multiple holes were set for each concentration. […] The absorbance was measured at 450 nm with an enzyme labeling instrument and the original data and results were recorded. […] Doxorubicin was used as a positive control. All the cancer cell lines were obtained from Qingdao AC biotechnology Co., LTD, Qingdao, China.
For orientation: Tetrazolium dyes change colour on reduction, which living cells bring about.

In data set [2] the test system is CAL-62 (human thyroid anaplastic carcinoma cell). The experiment in a line: CCK-8 anti-proliferation assay, CAL-62. It counts as cell-based. To be noted: at 20 µM, 48 h, mean ± SEM, read-out: Inhibition Rate (%). As for the experimental part: as §1
The subject of data set [3] is TE-1 (human esophageal cancer cell). The experiment in a line: CCK-8 anti-proliferation assay, TE-1. It counts as cell-based. As to conditions: at 20 µM, 48 h, mean ± SEM, read-out: Inhibition Rate (%). As for the experimental part:
as §1

For data set [4], the system named is 786-O (human renal cancer cell). The data set can be described thus: CCK-8 anti-proliferation assay, 786-O. It counts as cell-based. To be noted: 786-0, at 20 µM, 48 h, mean ± SEM, read-out: Inhibition Rate (%). The protocol:
as §1

In data set [5] the test system is A-375 (human melanoma cell). The data set can be described thus: CCK-8 anti-proliferation assay, A-375. It counts as cell-based. To be noted: at 20 µM, 48 h, mean ± SEM, read-out: Inhibition Rate (%). As for the experimental part: as §1
In data set [6] the test system is DU145 (human prostate carcinoma cell). The experiment in a line: CCK-8 anti-proliferation assay, DU145. As to conditions: DU-145, at 20 µM, 48 h, mean ± SEM, read-out: Inhibition Rate (%). It counts as cell-based. As for the experimental part: as §1
The subject of data set [7] is K-562 (human myeloid leukemia cell). The experiment in a line: CCK-8 anti-proliferation assay, K-562. It counts as cell-based. To be noted: 48 h, mean ± SEM. As for the experimental part: as §1
In data set [8] the test system is PATU8988T (human pancreatic cancer cell). The data set can be described thus: CCK-8 anti-proliferation assay, PATU8988T. It counts as cell-based. To be noted: PaTu 8988t, at 20 µM, 48 h, mean ± SEM, read-out: Inhibition Rate (%). As for the experimental part:
as §1

Data set [9] has as its system HeLa (human cervical cancer cell). The experiment in a line: CCK-8 anti-proliferation assay, HeLa. It counts as cell-based. To be noted: at 20 µM, 48 h, mean ± SEM, read-out: Inhibition Rate (%). As for the experimental part: as §1
For data set [10], the system named is MCF7 (human breast cancer cell). The data set can be described thus: CCK-8 anti-proliferation assay, MCF7. It counts as cell-based. To be noted: at 20 µM, 48 h, mean ± SEM, read-out: Inhibition Rate (%). The protocol: as §1
The test system of data set [11] is HepG2 (human liver carcinoma cell). The data set can be described thus: CCK-8 anti-proliferation assay, HepG2. It counts as cell-based. The protocol:
as §1

The test system of data set [12] is respiratory syncytial virus (RSV). The experiment in a line: Anti-RSV activity assay (RT-qPCR). It counts as cell-based. As to conditions: human respiratory syncytial virus, HEp-2 cells, mean ± SEM, read-out: Inhibition rate (%) of RSV replication. An excerpt:
Remdesivir was selected and evaluated as a positive control.
(Real-time PCR tracks product formation cycle by cycle.)

Data set [13] deals with HCT 116 (human colorectal cancer cell). The experiment in a line: CCK-8 anti-proliferation assay, HCT 116. It counts as cell-based. To be noted: at 20 µM, 48 h, mean ± SEM, read-out: Inhibition Rate (%). As for the experimental part:
as §1

For data set [14], the system named is 5637 (HTB-9) (human bladder cancer cell). The experiment in a line: CCK-8 anti-proliferation assay, 5637 (HTB-9). It counts as cell-based. The protocol: as §1
A further data set concerns A-673 (Ewing sarcoma). The data set can be described thus: CCK-8 anti-proliferation assay, A-673. It counts as cell-based. To be noted: Homo sapiens, A673, at 20 µM, 48 h, mean ± SEM, read-out: Inhibition Rate (%). The protocol:
as §1

The test system of data set [15] is A549 (human lung adenocarcinoma cell). The data set can be described thus: CCK-8 anti-proliferation assay, A549. It counts as cell-based. As to conditions: A549, 48 h, at 20 µM, mean ± SEM, read-out: Inhibition Rate (%). As for the experimental part: as §1
Data set [16] concerns HOS (human osteosarcoma cell). The data set can be described thus: CCK-8 anti-proliferation assay, HOS. It counts as cell-based. To be noted: at 20 µM, 48 h, mean ± SEM, read-out: Inhibition Rate (%). The protocol:
as §1

For data set [17], the system named is GBC-SD (human gallbladder carcinoma cell). The data set can be described thus: CCK-8 anti-proliferation assay, GBC-SD. To be noted: at 20 µM, 48 h, mean ± SEM, read-out: Inhibition Rate (%). It counts as cell-based. As for the experimental part: as §1
Data set [18] relates to 293T (human embryonic kidney cell). The data set can be described thus: CCK-8 anti-proliferation assay, 293T. It counts as cell-based. To be noted: HEK-293T, at 20 µM, 48 h, mean ± SEM, read-out: Inhibition Rate (%). As for the experimental part:
as §1

For data set [19], the system named is MKN-45 (human gastric cancer cell). The data set can be described thus: CCK-8 anti-proliferation assay, MKN-45. It counts as cell-based. To be noted: at 20 µM, 48 h, mean ± SEM, read-out: Inhibition Rate (%). As for the experimental part:
as §1

The test system of data set [20] is SF126 (human glioblastoma cell). The data set can be described thus: CCK-8 anti-proliferation assay, SF126. To be noted: SF-126, at 20 µM, 48 h, mean ± SEM, read-out: Inhibition Rate (%). It counts as cell-based. As for the experimental part:
as §1

Another data set has as its system 5637 (HTB-9) cells. The data set can be described thus: Apoptosis assay, Annexin V-FITC/PI flow cytometry. It counts as cell-based, human. To be noted: 48 h. The protocol:
Next, the apoptosis study of compound ([…])-5 was investigated against 5637 (HTB-9) cells based on a standard flow cytometry technique and assessed by Annexin V-FITC/PI staining. […] The percent of apoptosis in cells was assayed according to the instructions (Vazyme, A211). 5637 (HTB-9) cells were seeded in 6-well plates at 2 × 10^5 cells/well overnight and treated with compound ([…])-5 at various concentrations for 48 h. Trypsinization of the cells occurred without EDTA and they were collected in tubes and suspended in 100 μL ice-cold 1 × binding buffer after being washed twice with PBS. Cells were stained with PI and FITC Annexin V for 10 min at room temperature following the instructions of the Annexin V FITC/PI kit (Vazyme Biotech, Nanjing, China). Next, 200 μL ice-cold 1 × binding buffer was added. The result was measured by flow cytometry (MoFlo XDP, Beckman, Pasadena, CA, USA). For each condition, a minimum of 10,000 cells were analyzed. Triplicate experiments were performed independently.
For orientation: In flow cytometry, cells or beads pass a laser one at a time.

For data set [21], the system named is human leukemia cell line K-562. As to conditions: cited from earlier work.

Regarding `CC(=O)OC[C@H](C)CCC[C@@H](C)[C@H]1CC[C@H]2[C@@H]3CC(=O)[C@@]4(O)C[C@@H](O)CC[C@]4(C)[C@H]3CC[C@]12C` [compound (25R)-5, (2R,6R)-6-((3S,5R,8S,9S,10R,13R,14S,17R)-3,5-Dihydroxy-10,13-Dimethyl-6-Oxohexadecahydro-1H-Cyclopenta[a]Phenanthren-17-yl)-2-Methylheptyl Acetate], the inhibition at 20 µM in [1] was -4.9 ± 3.4%; in data set [2], 18.2 ± 1.9%; in data set [3], 29.5 ± 2.2%; in data set [4], 65.3 ± 0.5%; in data set [5], 76.3 ± 1.7%; in data set [6] it was 12.2 ± 2%. For the same compound, the inhibition at 20 µM in [7] (Homo sapiens, K562, at 20 µM, read-out: Inhibition Rate (%)) amounted to 17.1 ± 2.8%; in [8] it was 65.9 ± 4.2%; in data set [9] it was 22.7 ± 1.2%; in data set [10], 19.3 ± 2.1%; in data set [11] (at 20 µM, 48 h, mean ± SEM, read-out: Inhibition Rate (%)), 66.8 ± 2.1%; in data set [13], 59.3 ± 3.8%. The inhibition at 20 µM in [14] (5637 (HTB-9), at 20 µM, 48 h, mean ± SEM, read-out: Inhibition Rate (%)) is 64.7 ± 3.4%; in the data set on A-673 (Ewing sarcoma), 49.4 ± 1.4%; in [15], not above 50%; in data set [16] it was 22.2 ± 1.1%; in [17] it was 28.1 ± 1.5%; in data set [18], 26.2 ± 1.5%. The inhibition at 20 µM worked out at 61.1 ± 1.4% in data set [19] and 28.1 ± 0.5% in data set [20]. Besides, the “Inhibition Rate (%)” value in data set [7] (at 20 µM) is “weak inhibition activity”. Moreover, the half-maximal inhibitory concentration (IC50) in [11] (CCK-8, 48 h, read-out: IC50 against HepG2 cells) stood at 15.5 µM; in data set [14] (CCK-8, 48 h, read-out: IC50 against 5637 (HTB-9) cells), 4.8 µM. The inhibition at 10 µM in data set [12] stood at 29.4 ± 7.1%. For the same compound, the “induction of apoptosis (early-stage Annexin V-FITC+/PI- and late-stage Annexin V-FITC+/PI+)” value in the data set with 5637 (HTB-9) cells is reported as “induced apoptotic cell death in a dose-dependent manner”.

On to `CC(=O)OCC(C)CCC[C@@H](C)[C@H]1CC[C@H]2[C@@H]3CC(=O)[C@@]4(O)C[C@@H](O)CC[C@]4(C)[C@H]3CC[C@]12C` (stereo partly drawn) [compound 5], for which the inhibition at 10 µM in data set [12] was 18.3 ± 3.8%. Moreover, the LC50 in data set [21] is 0.9 µg/mL (≈ 1.89 µM).

By inhibition is commonly meant the change of the read-out against control, counted positive when it falls. The term IC50 denotes the concentration at which inhibition is half-maximal. Usually LC50 stands for the concentration that kills 50% of the test population.
